Results from patent publication US11273151B2, “Methods of treating tumors and cancer, and identifying candidate subjects for such treatment” (ICAHN SCHOOL OF MEDICINE AT MOUNT SINAI, priority 2015, dated 2022).
Entries after “also recorded” stand apart in the source; their conditions may differ.

Tests used:
[1] = test system: TEAD/YAP dependent transcription; test: TEAD4 luciferase reporter assay; format: cell-based, human
Description: Cells were plated at 2×10^4 cells/well in 24 well plates, unless otherwise stated, 48 hours before collection and treated or genetically manipulated as described. Firefly and renilla luciferase activities were assayed with the dual luciferase assay system (Promega, Madison Wis., USA), as directed, and firefly luciferase activity was normalized to renilla luciferase activity. Firefly and renilla luminescence were measured with the TD-20e Luminometer (Turner).

MDA-MB-231 = test: Clonogenic cell proliferation assay, MDA-MB-231; format: cell-based, human; settings: 10 μM; MDA-MB-231, p53 DNA-contact mutation
Description: (§1) For clonogenic assay, cells were plated in triplicate at 1×10^3 cells in 6-well plates. Cells were treated or genetically manipulated as described. After 10 to 14 days, colonies were stained with 1% crystal violet in ethanol and photographed.

SK-BR-3 = test: Clonogenic cell proliferation assay, SK-BR-3; format: cell-based, human; settings: 10 μM; SK-BR-3, p53 conformational mutation
Description: as §1

[2] = test system: tumor lines with p53 DNA-contact mutations; test: Clonogenic cell proliferation assay, p53 DNA-contact mutant tumor lines; format: cell-based, human
Description: as §1

[3] = test system: tumor lines expressing p53 conformational mutations; test: Clonogenic cell proliferation assay, p53 conformational mutant tumor lines; format: cell-based, human; settings: for inhibition of proliferation: single agent, concentration not given
Description: as §1

SK-LMS-1 = test: Clonogenic cell proliferation assay, SK-LMS-1; format: cell-based, human; settings: SK-LMS-1, p53 conformational mutation; concentration not given
Description: as §1

MDA-MB-468 = test: Clonogenic cell proliferation assay, MDA-MB-468; format: cell-based, human; settings: MDA-MB-468, p53-DNA contact tumor line
Description: as §1

HCC-193 = test: Clonogenic cell proliferation assay, HCC-193; format: cell-based, human; settings: HCC-193, p53-DNA contact tumor line
Description: as §1

HCC-1395 = test: Clonogenic cell proliferation assay, HCC-1395; format: cell-based, human; settings: HCC-1395, p53 conformational mutant line
Description: as §1

[4] = test system: tumor lines harboring mutations in Hippo pathway core components; test: Proliferation of tumor lines with Hippo pathway core component lesions; format: cell-based; settings: tumor cells with lesions in Hippo pathway core components
Description: as §1

non-tumorigenic cells = test: Proliferation of non-tumorigenic cells; format: cell-based; settings: FIG. 7
Description: as §1

ROCK1 = ROCK1 (Homo sapiens, UniProt Q13464); settings: read-out: reported ICD50 for inhibition of ROCK1; cited from earlier work
ROCK1, sequence (Q13464 whole entry): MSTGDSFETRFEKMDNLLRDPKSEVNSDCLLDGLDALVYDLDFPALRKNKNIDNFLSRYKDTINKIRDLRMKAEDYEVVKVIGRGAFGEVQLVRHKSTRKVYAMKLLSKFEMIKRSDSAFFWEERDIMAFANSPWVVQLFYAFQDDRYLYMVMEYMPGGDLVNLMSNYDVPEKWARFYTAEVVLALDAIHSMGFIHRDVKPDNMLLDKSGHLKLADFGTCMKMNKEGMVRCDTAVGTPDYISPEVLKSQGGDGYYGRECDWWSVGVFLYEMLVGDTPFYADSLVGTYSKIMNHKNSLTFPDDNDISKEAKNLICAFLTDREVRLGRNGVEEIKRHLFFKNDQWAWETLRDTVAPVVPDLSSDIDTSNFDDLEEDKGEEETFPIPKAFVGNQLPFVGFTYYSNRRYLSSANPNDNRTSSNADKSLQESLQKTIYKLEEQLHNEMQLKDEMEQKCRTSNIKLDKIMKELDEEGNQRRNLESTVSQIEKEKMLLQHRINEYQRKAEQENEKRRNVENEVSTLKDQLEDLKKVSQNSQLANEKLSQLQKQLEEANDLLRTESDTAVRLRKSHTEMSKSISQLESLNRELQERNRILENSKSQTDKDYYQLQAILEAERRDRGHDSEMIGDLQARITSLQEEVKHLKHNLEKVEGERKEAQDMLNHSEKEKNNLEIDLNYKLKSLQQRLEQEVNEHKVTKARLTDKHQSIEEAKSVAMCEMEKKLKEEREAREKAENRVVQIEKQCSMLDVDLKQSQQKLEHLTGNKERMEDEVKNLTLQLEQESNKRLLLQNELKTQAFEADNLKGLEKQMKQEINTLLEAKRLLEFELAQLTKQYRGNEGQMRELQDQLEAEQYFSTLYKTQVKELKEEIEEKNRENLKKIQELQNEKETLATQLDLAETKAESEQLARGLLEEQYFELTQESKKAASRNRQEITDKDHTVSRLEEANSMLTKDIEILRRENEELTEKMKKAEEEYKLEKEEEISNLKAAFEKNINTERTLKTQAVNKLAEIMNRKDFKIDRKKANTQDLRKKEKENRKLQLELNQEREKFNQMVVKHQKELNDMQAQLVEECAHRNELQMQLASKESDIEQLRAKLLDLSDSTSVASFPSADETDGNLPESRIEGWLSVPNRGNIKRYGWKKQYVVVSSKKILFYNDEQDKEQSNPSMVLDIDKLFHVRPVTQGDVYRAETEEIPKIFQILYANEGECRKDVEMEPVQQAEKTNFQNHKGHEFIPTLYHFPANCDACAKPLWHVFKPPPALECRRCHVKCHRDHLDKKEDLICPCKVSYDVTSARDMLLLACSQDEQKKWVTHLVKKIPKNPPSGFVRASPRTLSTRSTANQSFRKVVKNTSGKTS

ROCK2 = ROCK2 (Homo sapiens, UniProt O75116); settings: read-out: reported ICD50 for inhibition of ROCK2; cited from earlier work
ROCK2, sequence (O75116 whole entry): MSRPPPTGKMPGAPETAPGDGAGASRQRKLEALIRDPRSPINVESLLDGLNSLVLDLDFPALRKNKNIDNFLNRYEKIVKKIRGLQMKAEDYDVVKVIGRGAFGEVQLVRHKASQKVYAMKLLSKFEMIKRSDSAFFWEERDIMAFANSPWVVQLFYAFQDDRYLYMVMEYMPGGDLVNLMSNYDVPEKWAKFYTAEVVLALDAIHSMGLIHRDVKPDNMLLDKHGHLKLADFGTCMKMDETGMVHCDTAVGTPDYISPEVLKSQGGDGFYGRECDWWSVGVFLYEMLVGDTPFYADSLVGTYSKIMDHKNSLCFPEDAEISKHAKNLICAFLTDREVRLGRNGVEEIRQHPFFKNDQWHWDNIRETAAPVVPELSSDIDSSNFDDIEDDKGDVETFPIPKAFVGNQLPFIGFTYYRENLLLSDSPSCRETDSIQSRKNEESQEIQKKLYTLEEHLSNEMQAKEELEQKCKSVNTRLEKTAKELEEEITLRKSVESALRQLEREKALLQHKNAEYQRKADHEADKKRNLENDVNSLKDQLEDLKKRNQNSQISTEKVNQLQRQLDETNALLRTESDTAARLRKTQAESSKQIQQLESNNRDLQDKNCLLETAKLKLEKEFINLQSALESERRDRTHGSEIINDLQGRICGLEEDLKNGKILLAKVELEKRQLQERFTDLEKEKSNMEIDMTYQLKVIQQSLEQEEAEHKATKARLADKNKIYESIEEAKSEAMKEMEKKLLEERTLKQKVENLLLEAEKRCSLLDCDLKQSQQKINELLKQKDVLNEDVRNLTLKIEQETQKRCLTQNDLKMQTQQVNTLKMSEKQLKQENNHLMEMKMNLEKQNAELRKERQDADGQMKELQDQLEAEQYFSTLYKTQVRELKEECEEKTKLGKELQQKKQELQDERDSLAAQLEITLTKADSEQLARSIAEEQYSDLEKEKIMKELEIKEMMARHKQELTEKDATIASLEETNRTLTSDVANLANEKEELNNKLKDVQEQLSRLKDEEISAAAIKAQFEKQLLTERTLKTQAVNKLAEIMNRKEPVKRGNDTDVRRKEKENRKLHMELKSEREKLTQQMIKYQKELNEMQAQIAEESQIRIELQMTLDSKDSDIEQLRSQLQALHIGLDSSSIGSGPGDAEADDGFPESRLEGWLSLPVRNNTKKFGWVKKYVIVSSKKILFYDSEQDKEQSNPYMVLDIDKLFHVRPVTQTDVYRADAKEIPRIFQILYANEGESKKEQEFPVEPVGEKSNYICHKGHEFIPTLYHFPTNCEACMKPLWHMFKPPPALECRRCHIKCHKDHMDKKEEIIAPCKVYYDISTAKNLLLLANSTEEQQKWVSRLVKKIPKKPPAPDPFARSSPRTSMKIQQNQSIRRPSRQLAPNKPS

[5] = test system: TEAD endogenous target gene expression; test: Quantitative real-time PCR of TEAD endogenous target genes; format: cell-based, human; settings: p53 DNA-contact mutant tumor lines
Description: Total RNA was extracted from cells using QIAshredder (Qiagen, Valencia, Calif., USA) and RNeasy Mini kit (Qiagen) following the manufacturer's instructions. First-strand cDNA synthesis was performed using Superscript II reverse transcriptase (Invitrogen, Carlsbad, Calif., USA) according to the manufacturer's instructions. Quantitative PCR was carried out using the ViiA™ 7 Real-Time PCR System (Life Technologies) using the FastStart SYBR Green Master mix (Roche, 04673492001). Primers were as follows: PCR was performed in 384 well plates using 10 μl volumes under the following conditions: 95° C. for 15 min, followed by 40 cycles of 94° C. for 15 sec, 61° C. for 30 sec, and 72° C. for 30 sec. Specificity was verified by a dissociation curve. Results were analyzed with ViiA7 RUO software (Life Technologies).

MCF10A cells = test: Anchorage-independent growth assay in soft agar; format: cell-based; settings: FIG. 4C
Description: Growth in soft agar was determined by seeding 2.5×10^3 MCF10A cells in 1 ml of growth media containing 0.3% agar (BD 214050) on top of 1 ml of 0.48% agar in 35-mm dishes. Cells were fed every 4 days for 3 weeks with 0.2 mL of growth medium. Colonies were stained with 1% crystal violet in ethanol and photographed. Colony density was measured using Image J. Assays were conducted in triplicate.

[6] = single agent, concentration not given

What does the source list for `O=S(=O)(c1cccc2cnccc12)N1CCCNCC1` [Fasudil]?
inhibition of TEAD/YAP dependent transcription (TEAD reporter activity) ([1]; 10 μM, MDA-MB-231, FIG. 5A): little if any detectable inhibition; also recorded: lack of effect; effect on proliferation (MDA-MB-231): no effect; effect on proliferation (SK-BR-3): no effect

With Verteporfin as the molecule, how does the inhibition of proliferation [2, 6] read?
The inhibition of proliferation was “inhibit proliferation”.

And the inhibition of proliferation [3]?
The inhibition of proliferation was “inhibited the proliferation; also recorded: inhibiting proliferation”.

Which inhibition of proliferation [2, 6] does the source give for `Oc1nc(-c2ccc(C(F)(F)F)cc2)nc2c1CSCC2` [XAV939] here?
The inhibition of proliferation was “antagonize the proliferation”.

What about the inhibition of proliferation [3] of the same molecule?
The inhibition of proliferation was “neither XAV939 nor Y-27632 inhibits proliferation”.

And the inhibition of proliferation (SK-LMS-1)?
Its inhibition of proliferation is “had no effect on the proliferation”.

And the inhibition of proliferation (MDA-MB-468)?
Its inhibition of proliferation is “able to inhibit the proliferation”.

And the inhibition of proliferation (HCC-193)?
The inhibition of proliferation was “able to inhibit the proliferation”.

What about the inhibition of proliferation (HCC-1395) of the same molecule?
Its inhibition of proliferation is “had no effect on the proliferation”.

And the “effect on growth / proliferation” value [4]?
The value was “inhibits proliferation”.

What about the inhibition of proliferation (non-tumorigenic cells) of the same molecule?
The inhibition of proliferation was “neither XAV939 nor Y-27632 inhibits proliferation”.

What does the source list for `Cc1cncc2cccc(S(=O)(=O)N3CCCN(C(=O)CN)C[C@@H]3C)c12` [Glycyl-H-1152]?
inhibition of TEAD/YAP dependent transcription ([1]; 1 μM, MDA-MB-231, FIG. 5A): marked inhibition; inhibition of proliferation ([2]; 1 μM): strikingly and specifically inhibited proliferation; concentration for specific inhibition of proliferation, lower than Y-27632 ([2]; relative to Y-27632): 10 fold; IC50 (ROCK1): 6 nM; IC50 (ROCK2): 11.8 nM

With `C[C@@H](N)[C@H]1CC[C@H](C(=O)Nc2ccncc2)CC1` [Y-27632] as the molecule, how does the “effect on TEAD reporter” value ([1]; p53 DNA-contact mutant tumor lines, FIG. 4A) read?
The value was “antagonized”.

And the “effect on TEAD endogenous target gene expression” value [5]?
Its value is “antagonized”.

And the “inhibition of colony formation / proliferation” value ([2]; 10-50 uM, 3 different p53 contact mutant tumor cells, FIG. 5B)?
The value was “almost complete inhibition of colony formation; also recorded: specific inhibition of proliferation”.

And the inhibition of proliferation [2, 6]?
Its inhibition of proliferation is “specifically inhibiting the proliferation; also recorded: specifically inhibit the proliferation; also recorded: antagonize the proliferation; also recorded: specifically inhibited proliferation”.

What about the “inhibition of colony formation” value ([3]; even at 100 μM, FIG. 5B) of the same molecule?
The value was “no detectable inhibition of colony formation”.

What about the inhibition of proliferation [3] of the same molecule?
The inhibition of proliferation was “neither XAV939 nor Y-27632 inhibits proliferation”.

And the “growth inhibitory effects on any of the other tumor cells analyzed” value ([3]; tumor cells without p53 DNA contact mutation, FIG. 4B)?
Its value is “without any obvious growth inhibitory effects”.

What about the inhibition of proliferation (non-tumorigenic cells) of the same molecule?
Its inhibition of proliferation is “neither XAV939 nor Y-27632 inhibits proliferation”.

What about the “effect on transforming ability (colony formation in soft agar)” value (“effect on transforming ability” below) (MCF10A cells; MCF10a cells overexpressing YAP) of the same molecule?
Its value is “specifically and markedly impaired the transforming ability”.

And the “effect on transforming ability” value (MCF10A cells; MCF10a cells overexpressing mutant HRAS)?
The value was “lack of effects”.

What about the “effect on transforming ability” value (MCF10A cells; MCF10a cells overexpressing p53 R175H (conformational)) of the same molecule?
Its value is “lack of effects”.

What about the “effect on transforming ability” value (MCF10A cells; MCF10a cells overexpressing p53 R273H (DNA contact)) of the same molecule?
Its value is “specifically and markedly impaired the transforming ability”.
